According to US20130053438A1, “PHARMACEUTICAL COMPOSITIONS COMPRISING LIGNANS AND THEIR DERIVATIVES FOR THE MEDICAL MANAGEMENT OF ANGIOGENESIS AND HYPOVASCULARITY” (Universitat Innsbruck, priority 2010, published 2013):
“And” between values parts separate entries of the source, which are not always exact repeats. Identical values can stand only once.

Columns and labels:
[1] = system: human microvascular endothelial cells; assay: capillary (endothelial tube) formation on matrigel substrate; format: cell-based; conditions: within 6 hrs of incubation, quantified by imaging software
Description: (§1) In particular 5-methoxy-leoligin has been shown and exemplified in the appended examples as a potent activator of angiogenesis. […] Furthermore, the pro-angiogenic activity of 5-methoxy-leoligin has been tested in vivo in the chorioallantois membrane (CAM) assay of chicken embryos. […] These assays are recognized in the art to represent functional assays for in vitro and in vivo angiogenesis; see Methods in Endothelial cell biology, H G Augustin Ed.; 2004, Springer Lab Manual, ISBN 3-540-21397-X, Springer —Verlag Berlin, Heidelberg, N.Y..
Cells form tube-like structures between each other within 6 hrs of incubation. Those were quantified by an imaging software.

HUVECs = assay: angiogenic sprouting in a 3-D Collagen matrix (spheroid sprouting assay); format: cell-based; conditions: after 24 h of stimulation
Description: as §1
These sprouts were analyzed after 24 h of stimulation and “cumulative sprout length” (CSL) of each sprout was quantified in μm.

[2] = system: chorioallantois membrane (CAM) of chicken embryos; assay: chicken chorioallantoic membrane (CAM) assay; format: in vivo; conditions: chicken embryo CAM, each group 5 eggs, p<0.05
Description: as §1
Each group consists of 5 eggs.

endothelial cells = assay: wound scratch healing assay; format: cell-based; conditions: 1 and 10 μM, 9 hours
Method: The upper two images show the migration of endothelial cells into scratch area without treatment (left side) an in the presence of Lag2 (right side). The two images at the bottom are the control images of the scratch size at 0 hours.

[3] = system: wound closure in pigs (Deutsches Landschwein); assay: porcine model for time of wound closure, topical administration; format: in vivo, pig
Method: FIG. 9. […] N for control and Leoligin treated wounds is 5. […] Data assessment was conducted in a blinded manner.
For the large animal model 30-35 kg pigs (Deutsches Landschwein) was used. Animals were supplied by, kept, and experiments were performed at the Central Animal Testing Facility of the University of Innsbruck and the “Besondere Einrichtung für Biomedizinische Forschung” of the Medical University of Vienna. Pigs received a standard growth diet.
One hour prior to anaesthesia pigs received an intramuscular injection of 4 mg/kg Azaperon and 0.1 mg/kg Atropin. Full anaesthesia was achieved by intravenously applied 2-3 mg/kg Propofol and 15 mg Piritramid, followed by intubation of animals and ventilation with 30% O2. Muscle relaxation was achieved by an initial does of 8 mg Pancuronium and repetition with 0.2 mg/kg/h Pancuronium. Maintenance of anaesthesia was achieved by continuous infusion with 8-12 mg/kg/h Propofol and 15 mg Piritramid.
In the course of an experimental bypass surgery in the pig, after re-implantation of the graft (into the carotis artery) Leoligin (“Leo”) or NaCl control solution was added into the wound topically (the situs was filled with control solution (0.9% NaCl) or a solution containing leoligin at 100 μM. By optical inspection every 24 hours of blinded researchers the time to wound closure/healing was documented. Animals with infected wounds were excluded from the analysis.

venous bypass grafts = conditions: prior art, Reisinger (2009); cited from earlier work
[4] = system: small muscle cells and endothelial cells; conditions: prior art, Reisinger et al. (2009); cited from earlier work

Compound	capillary formation (tube-like structures) [1]	capillary formation (tube-like structures) ([1]; listed as LaG2)	number and length of angiogenic sprouts (cumulative sprout length) (HUVECs)	number and length of angiogenic sprouts (cumulative sprout length) (HUVECs; listed as LaG2)	vascular density / blood vessel formation [2]	vascular density / blood vessel formation ([2]; listed as LaG2)	migration of endothelial cells into scratch area / wound healing (endothelial cells)	wound healing (in words) ([3]; leoligin 100 μM topical)	time until wound closure after surgery, mean value ([3]; leoligin 100 μM topical, N = 5)	time until wound closure after surgery, individual wounds ([3]; situs filled with solution containing leoligin at 100 μM, topical, inspection every 24 hours, blinded, listed as Leo)	effect on intimal hyperplasia of venous bypass grafts (venous bypass grafts)	induction of cell death [4]
C/C=C(/C)C(=O)OC[C@H]1[C@@H](Cc2ccc(OC)c(OC)c2)CO[C@@H]1c1cc(OC)c(OC)c(OC)c1 [5-methoxy-leoligin, [(2S,3R,4R)-4-(3,4-dimethoxybenzyl)-2-(3,4,5-trimethoxyphenyl)tetrahydrofuran-3-yl]methyl-(2Z)-2-methylbut-2-enoat]	significant increase in capillary formation	dose-depentently supported capillary formation	significantly enhanced both the length and number of angiogenic sprouts	significant increase of sprout number and lengths	significantly increased the vascular density	dose-dependently supported embryonic blood vessel formation	promotes the migration of endothelial cells into damaged tissue and stimulates wound healing	–	–	–	–	–
C/C=C(/C)C(=O)OC[C@H]1[C@@H](Cc2ccc(OC)c(OC)c2)CO[C@@H]1c1ccc(OC)c(OC)c1 [leoligin, [(2S,3R,4R)-4-(3,4-dimethoxybenzyl)-2-(3,4-dimethoxyphenyl)tetrahydrofuran-3-yl]methyl (2Z)-2-methylbut-2-enoat]	–	–	–	–	–	–	–	can successfully be used to promote wound healing	19.4 days	19 days and 20 days and 16 days and 21 days (2×)	inhibits intimal hyperplasia of venous bypass grafts	did not induce cell death
